Measurements reported in patent publication US7259239B2, “Lipopolysaccharide α-2,3 sialyltransferase of campylobacter jejuni and its uses” (priority 1998, dated 2007).

What was measured:
[1] = target: C. jejuni α-2,3-sialyltransferase (CST-06, MBP-fusion protein of the full length sialyltransferase) (Campylobacter jejuni, UniProt Q9RGF1); test: Acceptor specificity and kinetics on p-nitrophenyl-glycosides with malE-cst (CST-06); type: biochemical; details: p-NP-glycoside acceptor at 2.0 mM; for Relative Activity (CST-06): acceptor with lowest activity given the value 1
Chain of C. jejuni α-2,3-sialyltransferase (CST-06, MBP-fusion protein of the full length sialyltransferase) (Q9RGF1 entry or part of it): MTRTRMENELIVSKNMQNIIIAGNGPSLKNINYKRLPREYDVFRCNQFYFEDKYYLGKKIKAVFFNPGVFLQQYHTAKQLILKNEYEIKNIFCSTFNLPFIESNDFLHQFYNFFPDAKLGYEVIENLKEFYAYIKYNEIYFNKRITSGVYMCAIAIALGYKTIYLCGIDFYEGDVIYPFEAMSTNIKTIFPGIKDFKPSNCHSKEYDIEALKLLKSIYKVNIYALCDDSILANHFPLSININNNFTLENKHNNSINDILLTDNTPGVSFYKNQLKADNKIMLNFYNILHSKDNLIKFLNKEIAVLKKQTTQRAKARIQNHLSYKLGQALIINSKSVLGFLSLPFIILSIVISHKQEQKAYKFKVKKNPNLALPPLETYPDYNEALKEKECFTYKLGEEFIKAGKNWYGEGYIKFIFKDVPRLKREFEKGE
Description: (§1) Kinetic analysis of acceptors was performed at 37° C. with p-NP-glycosides at concentrations of 0.1 to 10 mM, with CMP-Neu5Ac at 1 mM. Kinetic analysis of the donor CMP-Neu5Ac was performed at a concentration of 20 μM to 1000 μM with p-NP-lactose at 5 mM. Care was taken to ensure that the level of acceptor conversion was between about 5-10% for acceptor kinetic assays.
(§2) For donor kinetics the amount of conversion of CMP-Neu5Ac was calculated from the amount of product formed compared to an internal standard of 10 μM p-NP-glucose added after the reaction. This peak was well resolved from the acceptor and product peaks. The reactions with p-NP-glycosides were stopped by addition of an equal volume of 2% SDS, 20 mM EDTA and heated to 75° C. for 3 minutes and then diluted 1:1 (or maximally 1:10 for 10 mM concentrations) with water. The samples were then analyzed by CE using a diode array detector scanning between 260 and 300 nm, with the peaks at detected at 290 nm. The peaks from the electropherograms were analyzed using manual peak integration with the P/ACE Station™ software. For rapid detection of enzyme activity, samples from the transferase reaction mixtures were examined by thin layer chromatography on silica-60 TLC plates (E. Merck) as described in Gilbert et al. (1996) supra.
(§3) The acceptor specificity of the C. jejuni α-2,3-sialyltransferase was examined with a panel of p-NP-glycosides having both β1→4 and β1→3 linkages. The kinetic data for all of the acceptors was collected using the MBP-fusion protein of the full length sialyltransferase. The data for the acceptor specificity were collected first by assaying the enzyme at an acceptor concentration of 2.0 mM. The acceptor with the lowest activity was given the value of 1 for the comparison of activity. These reaction conditions were used in a comparison (Table 3) of the C. jejuni enzyme with the Lst protein from N. meningitidis (Gilbert et al. (1996) J. Biol. Chem. 271: 28271-28276). The N. meningitidis Lst protein was also a MBP protein fusion which was soluble and purified by affinity chromatography.

[2] = target: T1, Lst protein from N. meningitidis (NST-33, MBP protein fusion) (Neisseria meningitidis serogroup B, UniProt P72097); type: biochemical; details: p-NP-glycoside acceptor at 2.0 mM; for Relative Activity (NST-33): acceptor with lowest activity given the value 1
T1 construct: made in house
T1 sequence (P72097 whole entry, the tested form may be a part): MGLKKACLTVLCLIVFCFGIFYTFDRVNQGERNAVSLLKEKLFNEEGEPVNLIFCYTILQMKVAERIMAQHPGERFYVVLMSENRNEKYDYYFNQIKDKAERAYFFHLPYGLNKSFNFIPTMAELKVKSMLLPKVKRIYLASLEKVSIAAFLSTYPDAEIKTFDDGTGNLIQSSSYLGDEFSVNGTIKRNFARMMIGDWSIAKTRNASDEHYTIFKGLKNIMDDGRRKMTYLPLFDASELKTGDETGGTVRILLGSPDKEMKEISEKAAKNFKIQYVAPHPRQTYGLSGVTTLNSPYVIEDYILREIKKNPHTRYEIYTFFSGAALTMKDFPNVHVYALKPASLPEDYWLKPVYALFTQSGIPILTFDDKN
Description: as §2, §3

[3] = system: CC(=O)N[C@H]1[C@@H](Oc2ccc([N+](=O)[O-])cc2)O[C@H](CO)[C@H](O)[C@@H]1O[C@@H]1O[C@H](CO)[C@H](O)[C@H](O)[C@H]1O; test: Acceptor specificity and kinetics on p-nitrophenyl-glycosides with malE-cst (CST-06); type: biochemical, Campylobacter jejuni; details: other: 37° C., p-NP-glycosides 0.1 to 10 mM, CMP-Neu5Ac 1 mM
Description: as §1, §2, §3

[4] = system: CC(=O)N[C@H]1[C@H](Oc2ccc([N+](=O)[O-])cc2)O[C@H](CO)[C@@H](O[C@@H]2O[C@H](CO)[C@H](O)[C@H](O)[C@H]2O)[C@@H]1O; test: as above; type: biochemical, Campylobacter jejuni; details: other: 37° C., p-NP-glycosides 0.1 to 10 mM, CMP-Neu5Ac 1 mM
Description: as §1, §2, §3

[5] = system: [H][C@@]1(O[C@H]2[C@H](O)[C@@H](O)[C@H](Oc3ccc([N+](=O)[O-])cc3)O[C@@H]2CO)O[C@H](CO)[C@H](O)[C@H](O)[C@H]1O; test: as above; type: biochemical, Campylobacter jejuni; details: other: 37° C., p-NP-glycosides 0.1 to 10 mM, CMP-Neu5Ac 1 mM
Description: as §1, §2, §3

Compound | Enzyme activity mU/mg (CST-06) [1] | Relative Activity (CST-06) [1] | Enzyme activity mU/mg (NST-33) [2] | Relative Activity (NST-33) [2] | Km [3] | Km [4] | Km [5]
O=[N+]([O-])c1ccc(O[C@@H]2O[C@H](CO)[C@@H](O[C@@H]3O[C@H](CO)[C@H](O)[C@H](O)[C@H]3O)[C@H](O)[C@H]2O)cc1 [Gal-β-1,4-Glc] | mU/mg = 420 | 4.9 | mU/mg = 30 | 7.8 | – | – | –
C. jejuni α-2,3-sialyltransferase (CST-06, MBP-fusion protein of the full length sialyltransferase) (Campylobacter jejuni) | – | – | – | – | 2.7 mM ± 0.1 mM | 0.8 mM ± 0.2 mM | 1.3 mM ± 0.12 mM
O=[N+]([O-])c1ccc(OC2OC(CO)C(OC3OC(CO)C(OC4OC(CO)C(O)C(O)C4O)C(O)C3O)C(O)C2O)cc1 (stereo not drawn) [Gal-α-1,4-Gal-β-Glc] | – | 0 | – | 5.6 | – | – | –
O=[N+]([O-])c1ccc(O[C@@H]2O[C@H](CO)[C@H](O)[C@H](O)[C@H]2O)cc1 [Gal-β] | – | 1 | – | 1.2 | – | – | –
